Reference: paper PMC12114895, “Lanthanides-Based Nanoparticles Conjugated with Rose Bengal for FRET-Mediated X-Ray-Induced PDT” (Pharmaceuticals, 2025)
Entries after “also recorded” stand apart in the source; their conditions may differ. Like-named read-outs stand apart in the source and are kept apart here.

Key:
[1] = Hydrodynamic size by TDA-ICP-MS; type: physicochemical; settings: Table 4, listed as AGuIX Ln@Mal-K(RB)DKPPR (Ln = Gd)
Method: TDA experiments were conducted using a TDA-ICP-MS hyphenation between a Sciex P/ACE MDQ instrument and a 7700 Agilent ICP-MS. Fused silica capillaries with an inner diameter of 75 µm and outer diameter of 375 µm, and a total length of 64 cm, were coated with hydroxypropylcellulose (HPC) using a solution of 0.05 g mL^−1 in water. Detection was carried out by ICP-MS at m/z = 158 and m/z = 159 for Gd and Tb detection, respectively. Samples were hydrodynamically injected (0.3psi for 3 s), then mobilized using Tris 10 mM and NaCl 125 mM at 0.7 psi. Between runs, the capillary was flushed at 5 psi for 5 min with the mobilization medium. All measurements were performed at least in duplicates.
The detected peak was fitted by a sum of Gaussian distributions using Origin 8.5 software, according to Equation (8).(8) St=∑i=12Ai/σi 2πexp−t−t0^2/2σi2 where t0 is the peak residence time, and […] are the area under the curve and the temporal variance associated with each species i, respectively.
Under these experimental conditions, the molecular diffusion coefficient D is given by(9) D=Rc2t0/24σ^2=2kBT/6πηDh where Rc is the capillary radius, kB is the Boltzmann constant, T is the temperature, η is the viscosity, and Dh is the hydrodynamic diameter of the solute.
Therefore, using Equation (9), the hydrodynamic diameters can be calculated from the temporal variances measured from the fitted Taylorgram.

[2] = Singlet oxygen production quantum yield; type: physicochemical; settings: D2O, reference Eosin Y; for ^1O2 quantum yield ΦΔ558: λexc = 558 nm
U-251 MG cells = assay: Anchorage-dependent clonogenic assay with X-ray irradiation; type: cell-based, human; settings: [RB] = 1 µM, 24 h, X-ray 2 Gy (320 kV, 10 mA, 3 Gy/min), clones after 7 days; fraction of untreated non-irradiated cells; mean, triplicates from 3 experiments (n = 9)
[3] = Fluorescence quantum yield; type: physicochemical; settings: D2O, λexc = 558 nm; reference tetraphenylporphyrin
Method: (§1) Absorption spectra were recorded on a UV-3600 UV–visible double beam spectrophotometer (Shimadzu, Marne-La-Vallée, France). Fluorescence spectra were recorded on a Fluorolog FL3-222 spectrofluorimeter (Horiba Jobin Yvon, Palaiseau, France) equipped with a 450 W Xenon lamp and thermostated cell compartment (25 °C), a UV–visible photomultiplier R928 (Hamamatsu Photonics, Hamamatsu, Japan) and an InGaAs infrared detector (DSS-16A020L Electro-Optical System Inc, Phoenixville, PA, USA). The excitation beam was diffracted by a double ruled grating SPEX monochromator (1200 grooves/mm blazed at 330 nm). The emission beam was diffracted by a double ruled grating SPEX monochromator (1200 grooves/mm blazed at 500 nm). Singlet oxygen emission was detected through a double ruled grating SPEX monochromator (600 grooves/mm blazed at 1 µm) and a long-wave pass (780 nm). All spectra were measured in four-face quartz vials.
The fluorescence quantum yield (Φf) is calculated using Equation (6).(6) Φf=Φf0 . If/If0.OD0/OD. (n/n0)^2 where Φf and Φf0, If and If0, OD and OD0, n and n0 are the quantum yields, fluorescence intensities, optical densities, and refractive indices of the sample and reference, respectively.
Tetraphenylporphyrin (TPP) was chosen as the fluorescence reference standard (Φf0 = 0.11, toluene).

Ln luminescence lifetime = type: physicochemical; settings: D2O, λexc/λdetection = 273/313 nm
RB fluorescence lifetime = type: physicochemical; settings: D2O, λexc = 470 nm
Method: The Ln luminescence lifetime is recorded after excitation at 545 nm for Tb and 313 nm for Gd. The fluorescence lifetime of RB is recorded after excitation at 470 nm ( τf470 ). ^1O2 emission spectra are obtained after excitation at 558 nm (maximum absorption wavelength of RB) but also after excitation at 351 nm for Tb and 273 nm for Gd.
as §1

Zeta potential = type: physicochemical; settings: DLS, Zetasizer Nano-Z, He-Ne 633 nm; pH 7.2 mentioned; listed as AGuIX Ln@Mal-K(RB)DKPPR (Ln = Gd)
Method: The zeta potential (ξ) for each NPs was determined using Zetasizer Nano-Z (Malvern, UK) equipped with a He-Ne laser at 633 nm.

[4] = in ethanol; cited from earlier work
Text: RB is a xanthene PS [22] derived from fluorescein (Figure 1a) with interesting photophysical and sonosensitive properties. For example, Nonaka et al. used sonodynamic therapy (SDT) with RB and focused ultra-sound to treat experimental intracranial glioma in rats. […] RB photoactivation can be used for external application on the body, such as wound sealing or ...

NRP-1 [5] = biological target: T1, NRP-1 (Homo sapiens, UniProt O14786); assay: NRP-1 binding, competitive assay; settings: conjugated via maleimide on AGuIX NPs
T1 sequence (O14786 22-923): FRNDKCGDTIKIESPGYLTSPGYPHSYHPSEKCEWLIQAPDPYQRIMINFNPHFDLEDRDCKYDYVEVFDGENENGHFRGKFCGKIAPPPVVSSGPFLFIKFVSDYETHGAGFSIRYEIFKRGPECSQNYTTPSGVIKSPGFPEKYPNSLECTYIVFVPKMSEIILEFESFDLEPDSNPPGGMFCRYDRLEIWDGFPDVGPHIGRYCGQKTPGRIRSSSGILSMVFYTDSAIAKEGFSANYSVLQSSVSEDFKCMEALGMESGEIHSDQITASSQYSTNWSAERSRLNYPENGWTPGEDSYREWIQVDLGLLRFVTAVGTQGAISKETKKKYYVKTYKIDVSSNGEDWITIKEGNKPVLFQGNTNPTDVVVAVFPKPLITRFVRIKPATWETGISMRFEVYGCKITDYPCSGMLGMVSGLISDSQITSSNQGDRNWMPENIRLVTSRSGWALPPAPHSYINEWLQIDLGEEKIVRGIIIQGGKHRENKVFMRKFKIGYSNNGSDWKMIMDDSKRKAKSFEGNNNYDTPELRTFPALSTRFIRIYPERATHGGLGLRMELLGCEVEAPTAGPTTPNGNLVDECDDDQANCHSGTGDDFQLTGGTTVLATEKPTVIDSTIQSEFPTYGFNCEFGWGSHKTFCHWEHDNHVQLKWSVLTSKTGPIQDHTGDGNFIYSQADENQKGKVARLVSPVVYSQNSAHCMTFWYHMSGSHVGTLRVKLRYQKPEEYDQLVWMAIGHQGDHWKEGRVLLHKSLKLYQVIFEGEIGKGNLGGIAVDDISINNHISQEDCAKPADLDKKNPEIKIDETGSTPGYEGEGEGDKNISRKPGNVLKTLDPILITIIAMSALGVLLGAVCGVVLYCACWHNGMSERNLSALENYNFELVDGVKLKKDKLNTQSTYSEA
Method: The affinity of AGuIX Ln@Mal-K(RB) and AGuIX Ln@Mal-K(RB)DKPPR to NRP-1 was determined as previously described in terms of IC50 in another study.

NRP-1 [6] = biological target: T1, NRP-1; settings: peptide alone, cited from earlier work
Method: In the nano AGuIX platform tested, firstly, DOTA was chelated with Gd or Tb, and secondly, a targeted peptide recognizing neuropilin 1 (NRP-1) coupled to RB (i.e., K(RB)DKPPR) was conjugated to the surface of AGuIX NPs. […] In K(RB)DKPPR, conjugation via a maleimide function enhanced the affinity constant to the order of nM. Finally, NPs were tested in vitro on U-251 MG cells, derived from a human glioblastoma multiforme, using an anchorage-dependent clonogenic assay. […] An increase in SOSG fluorescence signal was observed confirming ^1O2 production, which was inhibited by the addition of NaN3 in the reaction mixture (Figure 11).

[7] = listed as AGuIX Ln@Mal-K(RB)DKPPR (Ln = Gd)

Compound: Mal-K(RB)DKPPR [AGuIX Gd@Mal-K(RB)DKPPR, Mal-K(RB)DKPPR conjugated to thiolated AGuIX Gd NPs by thiol-maleimide click chemistry]
- percentage of population P1 [1]: 95%
- percentage of population P2 [1]: 5%
- Size, population P1 ([1]; Tris 10 mM and NaCl 125 mM): 2.9 nm
- Size, population P2 ([1]; Tris 10 mM and NaCl 125 mM): 14.0 nm
- ^1O2 quantum yield ΦΔ273(Gd) ([2]; λexc = 273 nm): 0.35
- ^1O2 quantum yield ΦΔ558 [2, 7]: 0.67
- Cell survival (clonogenic capability relative to control) (U-251 MG cells): 0.63
- Fluorescence quantum yield Φf558 [3]: 0.11
- Ln luminescence lifetime τL (Gd) (Ln luminescence lifetime): 345 µs
- RB fluorescence lifetime τf470 (RB fluorescence lifetime; [7]): 3.8 ns
- Zeta potential (ζ) (Zeta potential): −10 mV

Compound: O=C1OC2(c3cc(I)c(O)c(I)c3Oc3c2cc(I)c(O)c3I)c2c(Cl)c(Cl)c(Cl)c(Cl)c21 [RB, Rose Bengal]
- ^1O2 quantum yield ΦΔ351(Tb) or ΦΔ273(Gd) ([2]; λexc = 351 nm or 273 nm (not told apart for RB)): 0.00
- ^1O2 quantum yield ΦΔ558 [2]: 0.67
- Fluorescence quantum yield Φf558 [3]: 0.15
- RB fluorescence lifetime τf470 (RB fluorescence lifetime): 0.63 ns
- fluorescence quantum yield (Φf) [4]: 0.11
- singlet oxygen quantum yield (ΦΔ) [4]: 0.68

Compound: K(RB)DKPPR [NRP-1-targeting peptide coupled to RB]
- affinity for NRP-1 (NRP-1 [5]): order of nM; also recorded: affinity in the nM range

Compound: KDKPPR [NRP-1-targeting peptide]
- affinity for NRP-1 (NRP-1 [6]; ref 37): affinity of the order of μM
- affinity for NRP-1 (NRP-1 [6]; ref 40): micromolar affinity
- binding affinity for NRP-1 (NRP-1 [6]; ref 41): around 1 μM
